Where two headings read alike, the source gives them in different places.
Target: BCL6 (Homo sapiens (Human), UniProt P41182)
Test: Immunofluorescence high content imaging of BCL6 degradation in T47D cells
Type: cell-based
Method in brief: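 Read-out is BCL6 immunofluorescence quantified by high-content imaging (10×, 4 fields per well) of T47D breast cancer cells. Cells were exposed for 3 days to degrader in an 11-point, 3-fold serial dilution reaching a final top concentration of 0.1 or 1 μM.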

`CNC(=O)COc1cc2cc(Nc3nc(N4CCC(CN5CC6(C5)CN(c5ccc7c(c5)C(=O)N(C5CCC(=O)NC5=O)C7=O)C6)CC4)ncc3Cl)ccc2n(C(C)C)c1=O` (stereo not drawn) [compound 306, 2-{[6-({5-chloro-2-[4-({6-[2-(2,6-dioxopiperidin-3-yl)-1,3-dioxo-2,3-dihydro-1H-isoindol-5-yl]-2,6-diazaspiro[3.3]heptan-2-yl}methyl)piperidin-1-yl]pyrimidin-4-yl}amino)-2-oxo-1-(propan-2-yl)-1,2-dihydroquinolin-3-yl]oxy}-N-methylacetamide] was tested, and the IC50 was < 10 nM and the Dmax (T47D) was ≥ 70%.

In the case of `CNC(=O)COc1cc2cc(Nc3nc(N4CCN(C(C)(C)C5CCN(c6cccc7c6C(=O)N(C6CCC(=O)NC6=O)C7=O)CC5)CC4)ncc3Cl)ccc2n(C(C)C)c1=O` (stereo not drawn) [compound 307, 2-{[6-({5-chloro-2-[4-(2-{1-[2-(2,6-dioxopiperidin-3-yl)-1,3-dioxo-2,3-dihydro-1H-isoindol-4-yl]piperidin-4-yl}propan-2-yl)piperazin-1-yl]pyrimidin-4-yl}amino)-2-oxo-1-(propan-2-yl)-1,2-dihydroquinolin-3-yl]oxy}-N-methylacetamide], the IC50 was < 10 nM and the Dmax (T47D) was 50 to 70%.

For `CNC(=O)COc1cc2cc(Nc3cc(N4CCN(C(C)(C)C5CCN(c6ccc7c(c6)C(=O)N(C6CCC(=O)NC6=O)C7=O)CC5)CC4)ncc3Cl)ccc2n(C(C)C)c1=O` (stereo not drawn) [compound 308, 2-{[6-({5-chloro-2-[4-(2-{1-[2-(2,6-dioxopiperidin-3-yl)-1,3-dioxo-2,3-dihydro-1H-isoindol-5-yl]piperidin-4-yl}propan-2-yl)piperazin-1-yl]pyridin-4-yl}amino)-2-oxo-1-(propan-2-yl)-1,2-dihydroquinolin-3-yl]oxy}-N-methylacetamide], the IC50 was 10 to 50 nM and the Dmax (T47D) was < 50%.

Molecule `CCn1c(=O)c(OCC(=O)NC)cc2cc(Nc3nc(N4CCC(OC5CN(CC6CN(c7ccc8c(c7)C(=O)N(C7CCC(=O)NC7=O)C8=O)C6)C5)CC4)ncc3Cl)ccc21` (stereo not drawn) [compound 309, 2-[(6-{[5-chloro-2-(4-{[1-({1-[2-(2,6-dioxopiperidin-3-yl)-1,3-dioxo-2,3-dihydro-1H-isoindol-5-yl]azetidin-3-yl}methyl)azetidin-3-yl]oxy}piperidin-1-yl)pyrimidin-4-yl]amino}-1-ethyl-2-oxo-1,2-dihydroquinolin-3-yl)oxy]-N-methylacetamide] has an IC50 of 10 to 50 nM and a Dmax (T47D) of 50 to 70%.

`CCn1c(=O)c(OCC(=O)NC)cc2cc(Nc3nc(N4CCN(CC5CCN(c6cccc7c6C(=O)N(C6CCC(=O)NC6=O)C7=O)CC5)CC4)ncc3Cl)ccc21` (stereo not drawn) [compound 310, 2-{[6-({5-chloro-2-[4-({1-[2-(2,6-dioxopiperidin-3-yl)-1,3-dioxo-2,3-dihydro-1H-isoindol-4-yl]piperidin-4-yl}methyl)piperazin-1-yl]pyrimidin-4-yl}amino)-1-ethyl-2-oxo-1,2-dihydroquinolin-3-yl]oxy}-N-methylacetamide] was tested, and the IC50 was < 10 nM and the Dmax (T47D) was 50 to 70%.

For `CNC(=O)COc1cc2cc(Nc3nc(N4CCN(CC5CCN(c6cccc7c6C(=O)N(C6CCC(=O)NC6=O)C7=O)CC5)CC4)ncc3Cl)ccc2n(C(C)C)c1=O` (stereo not drawn) [compound 311, 2-{[6-({5-chloro-2-[4-({1-[2-(2,6-dioxopiperidin-3-yl)-1,3-dioxo-2,3-dihydro-1H-isoindol-4-yl]piperidin-4-yl}methyl)piperazin-1-yl]pyrimidin-4-yl}amino)-2-oxo-1-(propan-2-yl)-1,2-dihydroquinolin-3-yl]oxy}-N-methylacetamide], the IC50 was < 10 nM and the Dmax (T47D) was ≥ 70%.

In the case of `CCn1c(=O)c(OCC(=O)NC)cc2cc(Nc3nc(N4CCN(C(C)(C)C5CCN(c6cccc7c6C(=O)N(C6CCC(=O)NC6=O)C7=O)CC5)CC4)ncc3Cl)ccc21` (stereo not drawn) [compound 312, 2-{[6-({5-chloro-2-[4-(2-{1-[2-(2,6-dioxopiperidin-3-yl)-1,3-dioxo-2,3-dihydro-1H-isoindol-4-yl]piperidin-4-yl}propan-2-yl)piperazin-1-yl]pyrimidin-4-yl}amino)-1-ethyl-2-oxo-1,2-dihydroquinolin-3-yl]oxy}-N-methylacetamide], the IC50 was < 10 nM and the Dmax (T47D) was ≥ 70%.

With `CCn1c(=O)c(OCC(=O)NC)cc2cc(Nc3nc(N4CCN(C(C)(C)C5CCN(c6ccc7c(c6)CN(C6CCC(=O)NC6=O)C7=O)CC5)CC4)ncc3Cl)ccc21` (stereo not drawn) [compound 313, 2-{[6-({5-chloro-2-[4-(2-{1-[2-(2,6-dioxopiperidin-3-yl)-1-oxo-2,3-dihydro-1H-isoindol-5-yl]piperidin-4-yl}propan-2-yl)piperazin-1-yl]pyrimidin-4-yl}amino)-1-ethyl-2-oxo-1,2-dihydroquinolin-3-yl]oxy}-N-methylacetamide] the IC50 was < 10 nM and the Dmax (T47D) was 50 to 70%.

In the case of `CCCn1c(=O)c(OCC(=O)NC)cc2cc(Nc3nc(N4CCN(CC5CCN(c6ccc7c(c6)C(=O)N(C6CCC(=O)NC6=O)C7=O)CC5)CC4)ncc3Cl)ccc21` (stereo not drawn) [compound 314, 2-{[6-({5-chloro-2-[4-({1-[2-(2,6-dioxopiperidin-3-yl)-1,3-dioxo-2,3-dihydro-1H-isoindol-5-yl]piperidin-4-yl}methyl)piperazin-1-yl]pyrimidin-4-yl}amino)-2-oxo-1-propyl-1,2-dihydroquinolin-3-yl]oxy}-N-methylacetamide], the Dmax (T47D cells) was 50 to 70% and the IC50 (T47D cells) was 10 to 50 nM.

Work on `CNC(=O)COc1cc2cc(Nc3nc(N4CCN(C(C)(C)C5CCN(c6ccc(C(=O)NC7CCC(=O)NC7=O)c(OC)c6)CC5)CC4)ncc3Cl)ccc2n(C)c1=O` (stereo not drawn) [compound 315, 4-[4-(2-{4-[5-chloro-4-({1-methyl-3-[(methylcarbamoyl)methoxy]-2-oxo-1,2-dihydroquinolin-6-yl}amino)pyrimidin-2-yl]piperazin-1-yl}propan-2-yl)piperidin-1-yl]-N-(2,6-dioxopiperidin-3-yl)-2-methoxybenzamide] yielded a Dmax (T47D cells) of 50 to 70% and an IC50 (T47D cells) of 10 to 50 nM.

In the case of `CCn1c(=O)c(OCC(=O)NC)cc2cc(Nc3nc(N4CCC(CN5CC(C6CN(c7ccc8c(c7)C(=O)N(C7CCC(=O)NC7=O)C8=O)C6)C5)CC4)ncc3Cl)ccc21` (stereo not drawn) [compound 316, 2-{[6-({5-chloro-2-[4-({1′-[2-(2,6-dioxopiperidin-3-yl)-1,3-dioxo-2,3-dihydro-1H-isoindol-5-yl]-[3,3′-biazetidin]-1-yl}methyl)piperidin-1-yl]pyrimidin-4-yl}amino)-1-ethyl-2-oxo-1,2-dihydroquinolin-3-yl]oxy}-N-methylacetamide], the Dmax (T47D cells) was 50 to 70% and the IC50 (T47D cells) was < 10 nM.

For `CCCCn1c(=O)c(OCC(=O)NC)cc2cc(Nc3nc(N4CCN(CC5CCN(c6ccc7c(c6)C(=O)N(C6CCC(=O)NC6=O)C7=O)CC5)CC4)ncc3Cl)ccc21` (stereo not drawn) [compound 317, 2-{[1-butyl-6-({5-chloro-2-[4-({1-[2-(2,6-dioxopiperidin-3-yl)-1,3-dioxo-2,3-dihydro-1H-isoindol-5-yl]piperidin-4-yl}methyl)piperazin-1-yl]pyrimidin-4-yl}amino)-2-oxo-1,2-dihydroquinolin-3-yl]oxy}-N-methylacetamide], the Dmax (T47D cells) was 50 to 70% and the IC50 (T47D cells) was < 10 nM.

Work on `CCCn1c(=O)c(OCC(=O)NC)cc2cc(Nc3nc(N4CCC[C@H](COc5cccc6c5C(=O)N(C5CCC(=O)NC5=O)C6=O)C4)ncc3Cl)ccc21` (stereo partly drawn) [compound 318, 2-{[6-({5-chloro-2-[(3S)-3-({[2-(2,6-dioxopiperidin-3-yl)-1,3-dioxo-2,3-dihydro-1H-isoindol-4-yl]oxy}methyl)piperidin-1-yl]pyrimidin-4-yl}amino)-2-oxo-1-propyl-1,2-dihydroquinolin-3-yl]oxy}-N-methylacetamide] yielded a Dmax (T47D cells) of 50 to 70% and an IC50 (T47D cells) of 50 to 100 nM.

With `CNC(=O)COc1cc2cc(Nc3nc(N4CCN(CC5CCN(c6cccc(C(=O)NC7CCC(=O)NC7=O)c6)CC5)CC4)ncc3Cl)ccc2n(C)c1=O` (stereo not drawn) [compound 319, 3-[4-({4-[5-chloro-4-({1-methyl-3-[(methylcarbamoyl)methoxy]-2-oxo-1,2-dihydroquinolin-6-yl}amino)pyrimidin-2-yl]piperazin-1-yl}methyl)piperidin-1-yl]-N-(2,6-dioxopiperidin-3-yl)benzamide] the Dmax (T47D cells) was < 50% and the IC50 (T47D cells) was 50 to 100 nM.

For `CNC(=O)COc1cc2cc(Nc3nc(N4CCN(CC5CCN(c6cccc(C(=O)NC7CCC(=O)NC7=O)n6)CC5)CC4)ncc3Cl)ccc2n(C)c1=O` (stereo not drawn) [compound 320, 6-[4-({4-[5-chloro-4-({1-methyl-3-[(methylcarbamoyl)methoxy]-2-oxo-1,2-dihydroquinolin-6-yl}amino)pyrimidin-2-yl]piperazin-1-yl}methyl)piperidin-1-yl]-N-(2,6-dioxopiperidin-3-yl)pyridine-2-carboxamide], the Dmax (T47D cells) was < 50% and the IC50 (T47D cells) was < 10 nM.

`CNC(=O)COc1cc2cc(Nc3nc(N4CCN(CCN5CCN(c6cccc7c6C(=O)N(C6CCC(=O)NC6=O)C7=O)CC5)CC4)ncc3Cl)ccc2n(C)c1=O` (stereo not drawn) [compound 321, 2-{[6-({5-chloro-2-[4-(2-{4-[2-(2,6-dioxopiperidin-3-yl)-1,3-dioxo-2,3-dihydro-1H-isoindol-4-yl]piperazin-1-yl}ethyl)piperazin-1-yl]pyrimidin-4-yl}amino)-1-methyl-2-oxo-1,2-dihydroquinolin-3-yl]oxy}-N-methylacetamide] was tested, and the Dmax (T47D cells) was 50 to 70% and the IC50 (T47D cells) was < 10 nM.

Work on `CNC(=O)COc1cc2cc(Nc3nc(N4CCN(CCC5CCN(c6ccc7c(c6)C(=O)N(C6CCC(=O)NC6=O)C7=O)CC5)CC4)ncc3Cl)ccc2n(C)c1=O` (stereo not drawn) [compound 322, 2-{[6-({5-chloro-2-[4-(2-{1-[2-(2,6-dioxopiperidin-3-yl)-1,3-dioxo-2,3-dihydro-1H-isoindol-5-yl]piperidin-4-yl}ethyl)piperazin-1-yl]pyrimidin-4-yl}amino)-1-methyl-2-oxo-1,2-dihydroquinolin-3-yl]oxy}-N-methylacetamide] yielded a Dmax (T47D cells) of 50 to 70% and an IC50 (T47D cells) of 10 to 50 nM.

In the case of `CNC(=O)COc1cc2cc(Nc3nc(N4CCN(CC5CCN(c6ccc7c(c6)C(=O)N(C6CCC(=O)NC6=O)C7=O)CC5)CC4)ncc3Cl)ccc2n(C2CC2)c1=O` (stereo not drawn) [compound 323, 2-{[6-({5-chloro-2-[4-({1-[2-(2,6-dioxopiperidin-3-yl)-1,3-dioxo-2,3-dihydro-1H-isoindol-5-yl]piperidin-4-yl}methyl)piperazin-1-yl]pyrimidin-4-yl}amino)-1-cyclopropyl-2-oxo-1,2-dihydroquinolin-3-yl]oxy}-N-methylacetamide], the Dmax (T47D cells) was ≥ 70% and the IC50 (T47D cells) was < 10 nM.

Source: US12310975B2, “Modulators of BCL6 proteolysis and associated methods of use” (Arvinas Operations, Inc., priority 2019, dated 2025)
